Assays:
Raw264.7 cells = test: Cell viability (CCK-8) of RAW264.7 cells; type: cell-based, mouse; settings: IL-4/IL-13 plus compound 10 μM, 12 h
Experimental: Cells were seeded in 96-well tissue culture plates. On the next day, cells were exposed to various concentrations of compounds and further cultured for the indicated period. Finally, cell proliferation was determined by using the Cell Counting Kit (CCK-8) (Dojindo, Kumamoto, Japan) assay.
Figure S2. Effects of natural pseudolaric acids 1-4, 6 and their O-pyranosides 5, 7 as well as the derivatives 8-18 o f 1 on Raw264.7 cell viability. Raw264.7 cells were treated with IL-4/IL-13 alone or combined with indicated compounds (10 μM) for 12 h. After incubation, the cell viability was determined using a cell counting kit (CCK-8, Dojindo, Japan) assay.
(1 picture or pasted object on this page, not shown here)

[1] = tested on: CD8+ T cell proliferation and activation suppressed by M2-like BMDMs; test: CD8+ T cell suppression assay (BMDM / spleen cell co-culture); type: cell-based, mouse; settings: BMDMs pretreated 48 h, co-cultured 48 h with anti-CD3/CD28-stimulated spleen cells
Experimental: Pro-tumoral M2-like TAMs are well-known to directly suppress CD8^+ T cell proliferation and activation. When they were co-cultured with autologous spleen cells, as expected, the IL-4/IL-13-induced BMDMs suppressed the proliferation and activation of CD8^+ T cells.
Spleen cells were isolated from C57BL/6 mice, followed by red blood cell (RBC) lysis. BMDMs were induced into M2-like macrophages and treated with different concentrations of compound 1 for 48 h. Then, 2 × 10^5 spleen cells/well were stimulated with αCD3/αCD28 and co-cultured with 2 × 10^4 pro-treated BMDMs in 96-well plates in LCM (RPMI 1640 with […] 2-mercaptoethanol and 10% fetal bovine serum) at 37 °C. After 48 h, the spleen cells were treated with the eBioscience™ Cell Stimulation Cocktail (plus protein transport inhibitors) for 4 h, and cell activation was then determined by the proportion of IFNγ^+ CD8^+ T cells and GRZB^+ CD8^+ T cells in CD8^+ T cells measured using flow cytometry. Cell proliferation was determined by the proportion of Ki67^+ CD8^+ T cells in CD8^+ T cells using flow cytometry.
Figure 3 Compound 12 reverses macrophage-mediated CD8^+ T cell suppression. […] The ratios of Ki67^+ CD8^+ T cells (A), IFNγ^+ CD8^+ T cells, and granzyme B^+ CD8^+ T cells (B) in total CD8^+ T cells were assessed using flow cytometry. […]

[2] = tested on: tumor-infiltrating immune cells in Hepa1-6 tumor; test: Flow cytometric analysis of tumor-infiltrating immune cells in the Hepa1-6 model; type: in vivo, C57 BL/6 mice; settings: Hepa1-6 tumor tissue, 25 mg/kg, 2 h after the last treatment
Text: Encouraged by its intriguing cellular activities, we investigated the anti-tumor effect of compound 12 in vivo. The Hepa1-6 liver cancer model, an immunocompetent macrophage-rich subcutaneous murine tumor model, was thus established. […] To further investigate whether the in vivo anti-tumor effect of compound 12 is associated with its inhibition of pro-tumoral macrophages and consequent activation of anti-tumor CD8^+ T cells, we analyzed the infiltration of macrophages and CD8^+ T cells in the tumor tissue of the Hepa1-6 model.
Animal procedures were approved by the Institutional Animal Care and Use Committee of the Shanghai Institute of Materia Medica (approval no. 2024-06-DJ-95). Mice (4–6 weeks old) were housed with five or six mice per cage in a specific pathogen-free room with a 12 h light/dark schedule at 25 °C ± 1 °C and were fed an autoclaved chow diet and water ad libitum. Hepa1-6 cells (2 × 10^6 cells) were subcutaneously implanted in the right flank of C57 BL/6 mice. When the tumors reached a volume of around 50 mm^3, the mice were randomized into the treatment groups. The vehicle groups were given the vehicle alone, and the treatment groups received compound 1 in the indicated doses via intratumoral injections once daily on the indicated days. The tumor volumes and body weights were measured twice per week. Tumor volume (TV) was calculated as follows: TV = (length × width^2)/2. Significant differences between the treated versus the vehicle groups were determined using the Student’s t-test. […] Consequently, the sample size for this treatment group was reduced to 7. Hepa1-6 tumor tissues were minced and digested using a Mouse Tumor Dissociation Kit (Miltenyi, Bergisch Gladbach, Germany). The cells were passed through a 70 μm cell strainer, stained with a fluorescent antibody or the matching isotype controls for 30 min at room temperature, and then tested using a BD CytoFLEX LX (Beckman). […] Viability was determined by staining with either the LIVE/DEAD® Fixable Violet Dead Cell Stain Kit (Invitrogen, Waltham, […], USA) or the Zombie Aqua™ Fixable Viability Kit (Biolegend, San Diego, CA, USA). Data were analyzed using FlowJo10.4 software.
Figure 4 Compound 12 inhibited Hepa1-6 tumor growth in vivo and remodeled the tumor microenvironment. […] The TVs (A) and body weights (B) are presented as the mean ± SEM. * p < 0.05 vs. the vehicle group, determined by the Student’s t-test. […] The infiltration of CD45^+ cells (C), TAMs (D), CD206^+ TAMs (E), ARG1^+ TAMs (F), CD8^+ T cells (G), GRZB^+ CD8^+ T cells (H), IFN γ^+ CD8^+ T cells (I), and TNF α^+ CD8^+ T cells (J) was tested (n = 8 mice in the vehicle group and n = 7 mice in the 12-treated group). * p < 0.05, ** p < 0.01, *** p < 0.001 vs. the vehicle group, determined by the Student’s t-test. […]

Compound: COC(=O)C1=CC[C@@]23CC[C@@H]([C@@](C)(/C=C/C=C(\C)C(=O)NNCCO)OC2=O)[C@@]3(OC(C)=O)CC1 [compound 12, Methyl(3R,4S,4aS,9aR)-4a-acetoxy-3-((1E,3E)-5-(2-(2-hydroxyethyl)hydrazineyl)-4-methyl-5-oxopenta-1,3-dien-1-yl)-3-methyl-1-oxo-3,4,4a,5,6,9-hexahydro-1H-4,9a-ethanocyclohepta[c]pyran-7-carboxylate]
- cell viability (Raw264.7 cells): no significant diminution in cell viability
- inhibitory effects of IL-4/IL-13-induced BMDMs on CD8+ T cell proliferation and activation (Ki67+, IFNγ+, GRZB+ CD8+ T cells) [1]: dose-dependently reversed
- TAMs with the M1-like phenotype (CD86+ TAMs, MHC II+ TAMs) [2]: marginal upregulation
- infiltration of CD8+ T cells and activated (GRZB+, IFNγ+, TNFα+) CD8+ T cells in CD45+ cells [2]: significantly upregulated
- infiltration of total immune cells (CD45+ cells) [2]: increasing trend
- tumor infiltration of total TAMs, CD206+ TAMs and ARG1+ TAMs in CD45+ cells [2]: significantly reduced

Source: paper PMC12114375, “Discovery of Hydrazineyl Amide Derivative of Pseudolaric Acid B for Reprogramming Tumor-Associated Macrophages Against Tumor Growth” (Molecules, 2025)
